Results on 32 compounds are retold here after the Kinase Knowledgebase extract (Sharma et al. 2016).

Where only a bound is given, the exact number is not on record here.

For assay [1], the target named is EGFR (human) (UniProt P00533). The conditions noted are these: a431.
The target in assay [2] is EGFR (human) (UniProt P00533). The conditions noted are these: a431. This is another data set of the same source.
In assay [3] the target is EGFR (human) (UniProt P00533). The settings on record: A431.
Assay [4] has as its target EGFR (human) (UniProt P00533). The conditions noted are these: a431. The source holds these as a separate data set.

Sequence of EGFR (human) (P00533 whole entry, looked up): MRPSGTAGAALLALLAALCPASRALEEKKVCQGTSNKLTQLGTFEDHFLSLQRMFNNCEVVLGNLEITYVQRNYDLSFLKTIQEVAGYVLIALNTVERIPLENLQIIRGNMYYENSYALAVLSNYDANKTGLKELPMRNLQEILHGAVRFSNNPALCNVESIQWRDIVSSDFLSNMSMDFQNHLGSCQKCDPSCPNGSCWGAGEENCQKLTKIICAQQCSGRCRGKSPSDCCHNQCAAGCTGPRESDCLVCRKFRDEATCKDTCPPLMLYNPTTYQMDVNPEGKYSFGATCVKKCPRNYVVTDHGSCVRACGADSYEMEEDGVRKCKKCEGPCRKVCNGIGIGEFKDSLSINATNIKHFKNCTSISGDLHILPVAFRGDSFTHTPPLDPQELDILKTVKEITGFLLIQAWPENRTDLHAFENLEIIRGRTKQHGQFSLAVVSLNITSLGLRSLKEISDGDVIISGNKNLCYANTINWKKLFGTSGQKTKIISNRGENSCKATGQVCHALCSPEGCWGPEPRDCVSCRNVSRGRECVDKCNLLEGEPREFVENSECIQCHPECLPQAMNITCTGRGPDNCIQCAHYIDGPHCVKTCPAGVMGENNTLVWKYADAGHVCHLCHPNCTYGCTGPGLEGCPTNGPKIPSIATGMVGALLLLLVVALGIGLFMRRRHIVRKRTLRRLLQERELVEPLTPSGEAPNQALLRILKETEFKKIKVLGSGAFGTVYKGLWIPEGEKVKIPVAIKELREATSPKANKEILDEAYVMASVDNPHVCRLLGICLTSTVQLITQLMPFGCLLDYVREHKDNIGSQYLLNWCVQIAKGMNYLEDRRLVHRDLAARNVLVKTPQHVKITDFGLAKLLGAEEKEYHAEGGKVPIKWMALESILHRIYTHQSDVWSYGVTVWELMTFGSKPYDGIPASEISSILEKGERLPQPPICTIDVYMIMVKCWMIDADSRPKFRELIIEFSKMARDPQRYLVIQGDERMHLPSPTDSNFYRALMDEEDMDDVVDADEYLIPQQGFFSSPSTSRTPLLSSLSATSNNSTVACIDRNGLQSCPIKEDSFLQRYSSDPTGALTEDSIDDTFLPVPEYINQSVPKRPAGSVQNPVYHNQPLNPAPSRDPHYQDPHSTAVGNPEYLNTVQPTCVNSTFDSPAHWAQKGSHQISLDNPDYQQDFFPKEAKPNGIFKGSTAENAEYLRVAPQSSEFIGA

The IC50 is the point on the concentration scale where inhibition reaches its midpoint. Read a low IC50 as greater potency in that assay. `COc1ccc(CNc2ncnc3cc(OC)c(OC)cc23)cc1OC`: the IC50 on EGFR (human) [1] was found to be 27.1 µM; on EGFR (human) [2], 30 µM; against EGFR (human) [3], 31.6 µM.

Turning to `COc1ccc(CCNc2ncnc3cc(OC)c(OC)cc23)cc1OC`, the IC50 was 26.5 µM on EGFR (human) [1] and 30 µM against EGFR (human) [2]. At EGFR (human) [3], this compound had an inhibition of 0.

On to `COc1ccc(CCCNc2ncnc3cc(OC)c(OC)cc23)cc1OC`, for which the concentration for half-maximal inhibition (IC50) on EGFR (human) [1] came out at 22.8 µM; against EGFR (human) [2], 3 µM. Moreover, the inhibition against EGFR (human) [3] stood at 0.

With `COc1cc2ncnc(N3CCNCC3)c2cc1OC`, the IC50 at EGFR (human) [1] and against EGFR (human) [2] was over 100 µM throughout. In addition, the inhibition at EGFR (human) [3] is 0.

For `COc1cc2nc(Nc3cccc(Br)c3)n3nnnc3c2cc1OC`, the IC50 against EGFR (human) [1] and against EGFR (human) [2] was over 100 µM in each case. Further, the inhibition on EGFR (human) [3] was 0.

Regarding `COc1cccc(N2CCN(c3ncnc4cc(OC)c(OC)cc34)CC2)c1`, the values for the IC50 against EGFR (human) [1] and at EGFR (human) [2] were 38.7 µM and 58.8 µM, respectively. The inhibition against EGFR (human) [3] was found to be 0.

In the case of `COc1cc2nc(N3CCOCC3)nc(N3CCOCC3)c2cc1OC`, the half-maximal inhibitory concentration (IC50) against EGFR (human) [1] and at EGFR (human) [2] was over 100 µM throughout. At EGFR (human) [3], this compound showed an inhibition of 0.

In the case of `COc1ccc(Nc2ncnc3cc(OC)c(OC)cc23)cc1OC`, the IC50 on EGFR (human) [1] was over 100 µM; at EGFR (human) [2] it was over 100 µM; against EGFR (human) [3], 9.4 µM.

Regarding `COc1cc2c(Nc3cccc(Br)c3)nc3nnnn3c2cc1OC`, the IC50 at EGFR (human) [1] and on EGFR (human) [2] was over 100 µM throughout. At EGFR (human) [3], this compound returned an inhibition of 0.

With `COc1ccc(N2CCN(c3ncnc4cc(OC)c(OC)cc34)CC2)cc1`, the IC50 on EGFR (human) [1] and against EGFR (human) [2] was over 100 µM throughout. This compound also gave an inhibition at EGFR (human) [3] of 0.

On to `COc1cc2ncnc(N3CCS(=O)(=O)CC3)c2cc1OC`, for which the IC50 against EGFR (human) [1] and against EGFR (human) [2] was over 100 µM each time. The same compound showed an inhibition at EGFR (human) [3] of 0.

In the case of `COc1cc2ncnc(N3CCN(c4cccc(C(F)(F)F)c4)CC3)c2cc1OC`, the figures for the IC50 at EGFR (human) [1] and against EGFR (human) [2] were 4.7 µM and 3.9 µM, respectively. In addition, on EGFR (human) [3], the inhibition was 0.

On to `COc1cc2ncnc(N3CCN(c4ccccc4F)CC3)c2cc1OC`, for which the IC50 against EGFR (human) [1] and against EGFR (human) [2] was over 100 µM in each case. The same compound registered an inhibition against EGFR (human) [3] of 0.

Turning to `COc1cc2ncnc(N3CCN(c4ccc(F)cc4)CC3)c2cc1OC`, the IC50 against EGFR (human) [1] and against EGFR (human) [2] was over 100 µM each time. For the same compound, on EGFR (human) [3], the inhibition was 0.

In the case of `COc1cc2ncnc(N3CCN(c4ccccn4)CC3)c2cc1OC`, the figures for the IC50 on EGFR (human) [1] and against EGFR (human) [2] were 63.5 µM and 67.4 µM, respectively. Further, the inhibition at EGFR (human) [3] was found to be 0.

As for `COc1cc2ncnc(N3CCN(c4ccc([N+](=O)[O-])cc4)CC3)c2cc1OC`, the IC50 against EGFR (human) [1] is 40.8 µM; against EGFR (human) [2], over 100 µM; on EGFR (human) [3], 0.0168 µM.

Regarding `COc1cc2ncnc(N3CCN(c4ccccc4Cl)CC3)c2cc1OC`, the half-inhibitory concentration (IC50) amounted to 13.7 µM against EGFR (human) [1] and 14.6 µM against EGFR (human) [2]. Also, the inhibition against EGFR (human) [3] came to 0.

`COc1cc2ncnc(Nc3ccccc3[N+](=O)[O-])c2cc1OC`: the IC50 on EGFR (human) [1] was 4.4 µM; against EGFR (human) [2] it was over 100 µM; on EGFR (human) [3], 0.0437 µM; at EGFR (human) [4] it was 563 nM.

`COc1cc2ncnc(N3CCN(c4ccccc4C)CC3)c2cc1OC`: the IC50 against EGFR (human) [1] and at EGFR (human) [2] was over 100 µM in each case. On EGFR (human) [3], the inhibition came to 0.

`COc1ccc(CCCCNc2ncnc3cc(OC)c(OC)cc23)cc1OC`: the IC50 against EGFR (human) [1] and against EGFR (human) [2] was over 100 µM throughout. This compound also had an inhibition at EGFR (human) [3] of 0.

As for `COc1cc2ncnc(N3CCOCC3)c2cc1OC`, the IC50 at EGFR (human) [1] and against EGFR (human) [2] was over 100 µM each time. For the same compound, on EGFR (human) [3], the inhibition came to 0.

In the case of `COc1cc2ncnc(N3CCN(c4cccc(Cl)c4)CC3)c2cc1OC`, the IC50 on EGFR (human) [1] and against EGFR (human) [2] was over 100 µM in each case. The compound also showed an inhibition at EGFR (human) [3] of 0.

For `COc1cc2ncnc(N(C)c3cccc(Br)c3)c2cc1OC`, the inhibition against EGFR (human) [3] and at EGFR (human) [4] was 0 in each case.

Consider `COc1cc2ncnc(N3CCN(c4ccc(Cl)cc4)CC3)c2cc1OC`, for which the IC50 is 24.7 µM against EGFR (human) [1], 85 µM against EGFR (human) [2] and 0.0047 µM against EGFR (human) [3].

For `COc1cc2ncnc(N3CCN(c4ccccc4OC)CC3)c2cc1OC`, the IC50 at EGFR (human) [1] is 1.4 µM; on EGFR (human) [2], 2.1 µM. On EGFR (human) [3], this compound came in with an inhibition of 0.

With `COc1cc2nc(Nc3cccc(Br)c3)nc(Nc3cccc(Br)c3)c2cc1OC`, the IC50 at EGFR (human) [1] is 13.2 µM; against EGFR (human) [2], 25.3 µM. The inhibition against EGFR (human) [3] was 0.

On to `COc1cc2ncnc(N3CCN(c4ccccc4)CC3)c2cc1OC`, for which the values for the IC50 against EGFR (human) [1] and on EGFR (human) [2] were 30.8 µM and 33.6 µM, respectively. This compound also gave an inhibition at EGFR (human) [3] of 0.

In the case of `COc1cc2ncnc(N3CCSCC3)c2cc1OC`, the IC50 on EGFR (human) [1] and at EGFR (human) [2] was over 100 µM in each case. The same compound returned an inhibition against EGFR (human) [3] of 0.

As for `COc1cc2ncnc(NCCNc3ccccc3)c2cc1OC`, the results for the concentration for half-maximal inhibition (IC50) on EGFR (human) [1], on EGFR (human) [2] and on EGFR (human) [3] were over 100 µM, over 100 µM and 31.6 µM, respectively.

Consider `COc1cc2nc3nccn3c(Nc3cccc(Br)c3)c2cc1OC`, for which the IC50 on EGFR (human) [1] turned out to be 6.8 µM; at EGFR (human) [2], 6.6 µM. The compound also registered an inhibition against EGFR (human) [3] of 0.

Take `COc1cccc(Nc2ncnc3cc(OC)c(OC)cc23)c1`: the IC50 against EGFR (human) [1] was determined as 11.7 µM; against EGFR (human) [2], 77 µM; against EGFR (human) [3], 1.6 µM; on EGFR (human) [4], 706 nM.

`COc1cc2ncnc(N3CCN(Cc4ccccc4)CC3)c2cc1OC`: the results for the IC50 against EGFR (human) [1], against EGFR (human) [2] and at EGFR (human) [3] were 21.8 µM, 34.6 µM and 17.9 µM, respectively.
